Measured values from ChEMBL document CHEMBL2074484, “Molecular cloning and characterization of two novel human renal organic anion transporters (hOAT1 and hOAT3)” (Biochem Biophys Res Commun, 1999).

Columns and labels:
Assay type in all cases: functional, cell-based
Settings in all cases: oocyte
[1] = molecular target: T1, Solute carrier family 22 member 6 (Homo sapiens, UniProt Q4U2R8); test: TP_TRANSPORTER: inhibition of PAH uptake (PAH: 1 uM, Hydrochlorothiazide: 100 uM) in Xenopus laevis oocytes
T1 sequence (Q4U2R8 whole entry): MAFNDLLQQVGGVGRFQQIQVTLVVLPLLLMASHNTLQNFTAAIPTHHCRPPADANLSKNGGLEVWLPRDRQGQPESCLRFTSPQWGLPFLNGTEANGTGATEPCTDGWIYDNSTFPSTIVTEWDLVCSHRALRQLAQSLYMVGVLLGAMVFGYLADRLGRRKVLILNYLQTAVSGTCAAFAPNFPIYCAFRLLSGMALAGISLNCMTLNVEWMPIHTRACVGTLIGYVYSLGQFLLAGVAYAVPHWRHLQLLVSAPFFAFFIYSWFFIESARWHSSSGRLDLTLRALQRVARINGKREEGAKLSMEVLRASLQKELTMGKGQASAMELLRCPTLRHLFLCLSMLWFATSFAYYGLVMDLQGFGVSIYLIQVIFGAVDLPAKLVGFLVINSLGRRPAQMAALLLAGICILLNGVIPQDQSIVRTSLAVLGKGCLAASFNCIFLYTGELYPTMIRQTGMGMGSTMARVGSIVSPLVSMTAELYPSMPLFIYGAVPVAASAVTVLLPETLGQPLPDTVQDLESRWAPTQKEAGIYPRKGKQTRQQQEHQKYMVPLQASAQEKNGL

[2] = molecular target: T2, Organic anion transporter 3 (Homo sapiens, UniProt Q8TCC7); test: (§1) TP_TRANSPORTER: uptake in Xenopus laevis oocytes
T2 sequence (Q8TCC7 whole entry): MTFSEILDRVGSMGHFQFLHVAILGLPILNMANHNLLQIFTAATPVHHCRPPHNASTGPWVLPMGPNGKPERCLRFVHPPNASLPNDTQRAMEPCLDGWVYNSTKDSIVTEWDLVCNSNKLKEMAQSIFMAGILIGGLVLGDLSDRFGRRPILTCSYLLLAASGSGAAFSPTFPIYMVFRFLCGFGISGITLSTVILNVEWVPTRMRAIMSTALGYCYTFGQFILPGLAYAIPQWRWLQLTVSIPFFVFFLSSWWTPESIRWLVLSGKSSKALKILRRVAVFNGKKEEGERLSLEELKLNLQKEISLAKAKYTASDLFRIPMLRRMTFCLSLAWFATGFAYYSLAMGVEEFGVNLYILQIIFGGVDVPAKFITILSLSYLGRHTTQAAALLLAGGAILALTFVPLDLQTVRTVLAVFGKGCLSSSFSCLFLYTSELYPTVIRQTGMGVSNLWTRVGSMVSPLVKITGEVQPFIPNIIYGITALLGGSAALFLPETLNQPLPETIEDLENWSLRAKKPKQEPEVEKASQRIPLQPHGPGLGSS

[3] = molecular target: T1, Solute carrier family 22 member 6; test: TP_TRANSPORTER: inhibition of PAH uptake (PAH: 1 uM, Urate: 100 uM) in Xenopus laevis oocytes
[4] = molecular target: T1, Solute carrier family 22 member 6; test: as §1
[5] = molecular target: T1, Solute carrier family 22 member 6; test: TP_TRANSPORTER: inhibition of PAH uptake (PAH: 1 uM, Losartan: 100 uM) in Xenopus laevis oocytes
[6] = molecular target: T1, Solute carrier family 22 member 6; test: TP_TRANSPORTER: inhibition of PAH uptake (PAH: 1 uM, Bumetamide: 100 uM) in Xenopus laevis oocytes

`NS(=O)(=O)c1cc2c(cc1Cl)NCNS2(=O)=O` [HYDROCHLOROTHIAZIDE] was tested, and the Activity [1] was “is not an inhibitor [-]”.
`O=C([O-])C(=O)[O-].[Na+].[Na+]` [SODIUM OXALATE] was tested, and the Activity [2] was “is not a substrate [-]”.
In the case of `Nc1ccc(C(=O)NCC(=O)O)cc1` [AMINOHIPPURIC ACID], the Activity [2] is reported as “is not a substrate [-]”.
In the case of `O=c1[nH]c(=O)c2[nH]c(=O)[nH]c2[nH]1` [URIC ACID], the Activity [3] is reported as “is not an inhibitor [-]”, the Activity [2] is reported as “is not a substrate [-]” and the Activity [4] is reported as “is not a substrate [-]”.
With `CCCCc1nc(Cl)c(CO)n1Cc1ccc(-c2ccccc2-c2nn[nH]n2)cc1` [LOSARTAN] the Activity [5] was “inhibitor [(at a rough estimate) 25 % of control]”.
For `CCCCNc1cc(C(=O)O)cc(S(N)(=O)=O)c1Oc1ccccc1` [BUMETANIDE], the Activity [6] was “inhibitor [(at a rough estimate) 45 % of control]”.
For `CC[N+](CC)(CC)CC` [TETRYLAMMONIUM], the Activity [2] was “is not a substrate [-]”.
